Measured values published in patent US20130274104A1, “AGROCHEMICAL MIXTURES FOR INCREASING THE HEALTH OF A PLANT” (BASF SE, priority 2010, published 2013).

Key:
Assay type in all cases: in vivo
[1] = test system: Maize (corn); assay: Maize field trials 2009, grain yield as indicator of plant health; conditions: BBCH 55/57; for Yield (kg/ha): seven US locations
Protocol: Maize (corn) was grown in 2009 at seven locations in the U.S.A: Wyoming, Ill., Carlyle, Ill., Sparta, Ill., Manilla, Iowa, Blue Earth, Minn., Aurora, Nebr., and Tekamah, Nebr. The maize crop was planted at the local standard seeding rate with local standard row spacing. Each trial was set up as randomized complete block design with 8 replications. Plots consisted of 6-8 rows with the center two rows treated and harvested. Harvested plot size was at minimum 18.48 m^2.
The active ingredients were used as formulations. The formulations were used in the dose rates given below. The products were applied at tassel emergence (BBCH 55/57). […] The untreated control plots were treated with water only.
Grain yield (kg per ha) as an indicator for the health of a plant was assessed by harvesting the plants in the center rows of a plot (table 1). The efficacy was calculated as % increase of yield in the treatments compared to the untreated control using the following formula:
(§1) E=a/b−1•100 • a corresponds to the grain yield of the treated plants in kg/ha and • b corresponds to the grain yield of the untreated (control) plants in kg/ha

[2] = test system: Soybeans; assay: Soybean field trials 2009, grain yield as indicator of plant health
Protocol: (§2) Soybeans were grown in 2009 at eight locations in the U.S.A.: Jefferson, I A, Seymour, Ill., Sparta, Ill., Wyoming, Ill., Sheridan, Ind., Ozora, Mo., York, Nebr., and Centerville, S. Dak. The soybeans were planted at the local standard seeding rate with local standard row spacing. Each trial was setup as randomized complete block design with 6 replications. Plots consisted of 4 rows with the center two rows treated and harvested. Harvested plot size was minimum 15 m^2.
The active ingredients were used as formulations. The formulations were used in the dose rates given below. The products were applied when the soybeans had developed four to six trifoliates.
The mixture comprising pyraclostrobin and harpinαβ as shown in table 2 below was applied as a tankmix of both formulations.
Grain yield (kg per ha) was assessed as an indicator of plant health (table 2) by harvesting the plants in the center rows of a plot. The efficacy was calculated as % increase of yield in the treatments compared to the untreated control:
as §1

[3] = test system: Soybeans; assay: Soybean leaf chlorophyll content, FIELD SCOUT CM1000 chlorophyll meter, Sparta, Ill.; conditions: Harpinαβ 70 g/ha, Pyraclostrobin 0.44 l/ha
Protocol: as §2
The active ingredients were used as formulations. The formulations were used in the dose rates given below. The products were applied when the soybeans had developed four to six trifoliates. Pyraclostrobin (compound A) was applied once as HEADLINE® (250 g active per liter; EC formulation) with a product rate of 0.44 I/ha.
The harpinαβ peptide (compound B) was applied as the experimental WG formulation EBC-351 (1% active ingredient) with a product rate of 70 g/ha. The mixture comprising pyraclostrobin and harpinαβ as shown in table 2 below was applied as a tankmix of both formulations.
At the Sparta, Ill., location, the chlorophyll content (a well known indicator of the health of a plant) of 5 plants in a plot was measured with a FIELD SCOUT CM1000™ (Spectrum Technologies, Plainfield, Ill.) chlorophyll meter. Values were reported as a mean value per plot. The FIELD SCOUT CM1000™ senses light at wavelengths of 700 nm and 840 nm to estimate quantity of chlorophyll in leaves. The ambient and reflected light at each wavelength is measured. Light absorbtion at 700 nm by chlorophyll reduces the reflection at this wavelength whereas the light at 840 nm is unaffected and serves as an indication of light reflection due to physical characteristics of the leaf like a hairy leaf surface. Subsequently, a chlorophyll index value (0-999) is calculated from the measured ambient and reflected light data.
Based on the index values the efficacy of the treatments were calculated as described for the grain yield above. Similarly, the expected efficacy was estimated using Colby's formula as described above.

## COC(=O)N(OC)c1ccccc1COc1ccn(-c2ccc(Cl)cc2)n1 [Pyraclostrobin]
[1]; Harpinαβ 35 g/ha, Pyraclostrobin 0.3 l/ha, alone or combined
  OE [%] (Observed efficacy, % increase of yield compared to the untreated control): 1.10%
[1]; Pyraclostrobin 0.6 l/ha, Harpinαβ 35 g/ha in the combination
  OE [%] (Observed efficacy, % increase of yield compared to the untreated control): 0.10%
[1]; product rates Harpinαβ 35 g/ha (1%), Pyraclostrobin 0.3 l/ha (250 g/l), alone or combined
  Yield (kg/ha): 13218.9 kg/ha
[1]; product rates Pyraclostrobin 0.6 l/ha (250 g/l), Harpinαβ 35 g/ha (1%) in the combination
  Yield (kg/ha): 13087.1 kg/ha
[2]; Harpinαβ 70 g/ha, Pyraclostrobin 0.44 l/ha, average of all trials
  OE [%] (Observed efficacy, % increase of yield compared to the untreated control): 0.1%
[2]; Pyraclostrobin 0.44 l/ha applied at early soybean development
  effect on grain yield, in words: did not increase the grain yield on an average
[2]; product rates Harpinαβ 70 g/ha (1%), Pyraclostrobin 0.44 l/ha (250 g/l), four to six trifoliates, eight US locations
  Yield (kg/ha): 3319 kg/ha
[3]
  effect on leaf chlorophyll content, in words: increases the chlorophyll content
[3]; Sparta, Ill.
  OE [%] (Observed efficacy, chlorophyll index compared to the untreated control): 14.13%
[3]; Sparta, Ill., mean value per plot, 5 plants
  CC [0-999] (Chlorophyll Content, chlorophyll index value): 773.50
